From patent US20170233637A1, “METHODS FOR INHIBITING METAL CORROSION” (OHIO UNIVERSITY, priority 2014, published 2017)
Converted amounts (≈) assume the structure as drawn. “And” between values parts separate entries of the source, which are not always exact repeats. Identical values can stand only once. Like-named read-outs stand apart in the source and are kept apart here.

Key:
[1] = cited from earlier work; for Calculated vapor pressure: at 200° C., Yaws and Yang 1989; for Pvapor (vapor pressure): at 25° C.
[2] = carbon dioxide saturated environment; cited from earlier work
[3] = VCI screening in bulk solution (BLC rate by linear polarization resistance, OCP, solution pH); conditions: for inhibition properties in the tested water phase (VCI screening in bulk solution): 400 ppmv, 1 wt % NaCl
Procedure: Other measurements of the effectiveness of the VCI composition to inhibit corrosion may be derived from Open Circuit Potential (OCP) and Linear Polarization Resistance (Rp) experiments. In the volatile thiol screening test, a potentiostat was used to measure the Rp and the OCP of the ferrous metal sample. Corrosion rate in the water phase (BLC rate) is proportional to the corrosion current density (icorr), which was then calculated by using a B constant value of 0.026 V/decade (icorr=B/Rp/S in which S is surface area of the sample).
A three electrode system was used in which an X65 rotating cylinder electrode (1000 RPM) was the working electrode 12, a Pt wire was used as counter electrode 14, and Ag/AgCl as the reference electrode 16. A pH probe 18 was used to measure the pH of the solution before and after adding the VCI candidates. The experiments were performed at 25° C. and 1 bar total pressure (pCO2=0.96 bar).
In the VCI screening test, a potentiostat was used to measure the polarization resistance (Rp) of the X65 sample. Corrosion rate in the water phase (BLC rate) is proportional to the corrosion current density (icorr) which was then calculated by using a B constant value of 0.026 V/decade (icorr=B/Rp/S in which S is surface area of the sample).
A baseline test was performed in the absence of the VCI candidate compound. […] Dibutyl sulfide was used to compare the sulfide functional group versus the thiol functional group.
For the VCI screening tests, a 1 wt % NaCl solution was prepared and purged with CO2 for 2 hours at 25° C. before injecting the VCI candidate. […] After that the Open Circuit Potential (OCP) and Linear Polarization Resistance (LPR) were measured every 10 minutes during an exposure time of 3-4 hours. The pH of the solution was measured before and after adding the VCI candidate. Electrolyte resistance (ER) was measured by Electrochemical Impedance Spectroscopy (EIS).

[4] = cited from earlier work; for Solubility: at 77° C.; for Water solubility: temperature not given
[5] = Efficacy test of VCI candidates for top of the line corrosion (weight loss, ASTM G1; surface analysis); conditions: for surface of the X65 TLC specimen: 100 and 400 ppmv in the bulk, after 2 days; for TLC rate (weight loss): 2 days; for TLC rate (weight loss) / TLC rate: uninhibited 1.06 mm/y
Procedure: The temperatures of the bottom solution and gas phases were controlled by a heater, while temperature of the specimen at the top was controlled by cooling water. Through coil 20, a condenser 22 was used to prevent water and VCI vapor loss.
In the VCI efficacy test, corrosion rate of the specimen at the top (TLC rate) was measured by weight loss following the ASTM G1 standard. Sample surface was characterized by Scanning Electron Microscopy (SEM)/Energy Dispersive X-ray Spectroscopy (EDS).
1-hexanethiol, 1-decanethiol and 1-dodecanethiol were chosen based on the results in the VCI screening test, data from which will be shown below. In addition, the effect of acetic acid and MEG on the inhibition performance of the best VCI candidate was also taken into account.
For the efficacy tests of VCI candidates for TLC, 1 wt % NaCl was also prepared and purged with CO2 for 2 hours. In order to have a gas temperature of 65° C., the bottom solution was heated to 77° C. After that the selected concentration of the VCI candidates (Table 3) was added into the bulk solution. A weight loss specimen 24, after being ground (with up to 600 grit abrasive paper), was flush-mounted at the top of the experimental setup, controlling its temperature at 32° C. using cooling water. The weight loss sample and ER probe were added 0.1 hour after addition of the VCI candidate. The weight loss samples were withdrawn after 48 hours for surface analysis and weight loss measurement.
FIG. 15 indicates the conditions for the TLC tests. The temperatures at the bottom, in the vapor phase, and at the top were 77° C., 65° C., and 32° C. respectively. The experiment was performed in the CO2 environment (total pressure=1 atm).

[6] = Solubility in water of VCI candidates; conditions: at 25° C.; converted to ppm by volume using density value
[7] = 400 ppmv VCI added before electrode insertion, CO2 saturated 1 wt % NaCl, 25° C., baseline 2.3 mm/y
[8] = at 25° C., data from www.lookchem.com

## CCCCCCCCCCCCCCCCCS [C17]
[1]
  Calculated vapor pressure: 10.7 mmHg

## O=C(O)CS [Thioglycolic acid]
[2]
  effectiveness at inhibiting corrosion: only partially effective

## CCCCCCCCCCCCCCCCS [C16]
[1]
  Calculated vapor pressure: 16.7 mmHg

## CCCCCCS [1-hexanethiol]
[3]; [7]
  BLC rate: 0.01 mm/y
[3]
  inhibition properties in the tested water phase (VCI screening in bulk solution): had inhibition properties
[1]
  Pvapor (vapor pressure): 4.5 mmHg
[4]; [8]
  Solubility limit: 177.1 mg/L (≈ 1500 µM)
[4]
  Solubility: 1013.0 ppmV
  Water solubility: about 177.1 mg/L
[5]
  surface of the X65 TLC specimen: partially protected
[5]; 100 ppmV at the bottom
  TLC rate (weight loss): 0.11 mm/y
[5]; 100 ppmv and 400 ppmv in the bulk
  TLC rate, times lower than the baseline test: 10 times
[5]; 400 ppmV at the bottom
  TLC rate (weight loss): 0.13 mm/y
[5]; 400 ppmv in the bulk, profilometry after removing corrosion product, 2 day experiment
  localized corrosion rate: 1.46 mm/y
[5]; 400 ppmv in the bulk, profilometry, 2 day experiment
  depth of the deepest pit on the surface: about 8 micrometers
[6]
  Solubility: 212.35 ppmV and 212.4 ppmV

## CCCCCCCCCCCCCCCCCCS [C18]
[1]
  Calculated vapor pressure: 6.79 mmHg

## CCCCCCCCCCCCS [1-dodecanethiol]
[3]
  inhibition properties in the tested water phase (VCI screening in bulk solution): had inhibition properties
[1]
  Pvapor (vapor pressure): 0.007 mmHg
[4]; [8]
  Solubility limit: 0.18 mg/L (≈ 0.889 µM)
[4]
  Solubility: 3 ppmV
  Water solubility: ~0.225 µg/mL
[5]; 400 ppmV at the bottom
  TLC rate (weight loss): 0.02 mm/y
[6]
  Solubility: 0.22 ppmV

## O=C(O)CCCCCCCCCCS [11-MUA, 11-mercaptoundecanoic acid]
[1]
  Pvapor (vapor pressure): 3.7 × 10^−5 mmHg
[4]
  Solubility: 89 ppmV
  Water solubility: about 13.8 mg/L
[5]; 100 ppmV at the bottom
  TLC rate (weight loss): 0.02 mm/y

## OCCCCCCCCCCCS [11-Mercapto-1-undecanol]
[4]
  Water solubility: about 10.3 mg/L

## CCCCCCCCCCS [1-decanethiol]
[3]; [7]
  BLC rate: 0.01 mm/y
[3]; 400 ppmv injected after electrode insertion (X65 pre-corroded almost one hour), decreased from 2.4 mm/y
  BLC rate: 0.05 mm/y
[3]
  inhibition properties in the tested water phase (VCI screening in bulk solution): had inhibition properties
[1]
  Pvapor (vapor pressure): 0.06 mmHg
[4]; [8]
  Solubility limit: 2.14 mg/L (≈ 12.3 µM)
[4]; at 32° C.
  Solubility limit: 3.63 ppmv
[4]
  Solubility: 24.8 ppmV
  Water solubility: ~2.14 µg/mL
[5]; 1 ppmv at the bottom
  TLC rate: 0.21 mm/y
[5]; 10 ppmv at the bottom
  TLC rate: 0.12 mm/y
[5]
  surface of the X65 TLC specimen: fully protected
[5]; 100 ppmv VCI with 500 ppmv acetic acid
  protection of the X65 specimen in the presence of acetic acid: effective in fully protecting
[5]; 400 ppmV at the bottom
  TLC rate (weight loss): 0.02 mm/y
[5]; above the solubility limit (100 ppmv and 400 ppmv)
  weight loss for the calculation of corrosion rate: no measurable weight loss
[5]; with or without 50 wt. % MEG, 400 ppmV per test matrix
  average vapor phase corrosion rate: around 0.04 mm/y

## CCCCCCCCCCCCCCCS [C15]
[1]
  Calculated vapor pressure: 26.5 mmHg

## CCCCSCCCC [Dibutyl sulfide, reference compound]
[3]; [7]
  BLC rate: did not significantly change
[3]
  inhibition properties in the tested water phase (VCI screening in bulk solution): did not
[4]; [8]
  Solubility limit: 39.4 mg/L (≈ 269 µM)
